Values after ≈ are worked out from the molar mass of the structure shown. Read-outs that look alike come from different tables or passages of the source.
Key:
S. aureus [1] = assay: MIC with/without bovine pulmonary surfactant, S. aureus; type: cell-based, Staphylococcus aureus; conditions: for MICRZ, Resazurin: +BPS: 2.5% v/v BPS; for MICRZ, Resazurin: no BPS
Experimental: (§1) Clinical isolates were identified by the submitting laboratories and confirmed by JMI Laboratories using standard bacteriologic algorithms and methodologies, including Matrix-Assisted Laser Desorption Ionization-Time Of Flight Mass Spectrometry (MALDI-TOF MS). When necessary, MALDI-TOF MS was performed using the Bruker Daltonics MALDI Biotyper (Billerica, Mass., USA), following manufacturer's instructions. Isolates selected were bacterial species commonly associated with pneumonia. […] 2.2 Susceptibility testing
(§2) Antibacterial susceptibility testing was measured by JMI Labs (North Liberty, Iowa, USA). […] These clinical isolates were collected from US (n=4), Mexico (n=2), and Italy (n=1). Susceptibility testing was performed by broth microdilution in accordance with the Clinical and Laboratory and Standards Institute (CLSI) guidelines M07-A10 (2015) and the standard operating procedures at JMI laboratories. Minimum inhibitory concentrations (MICs) were based on CLSI criteria (2015). There are no published breakpoints for iclaprim. E. coli, K. pneumoniae, M. catarrhalis, E. faecalis, and S. aureus were tested in cation-adjusted Mueller-Hinton broth (CA-MHB). S. pneumoniae were tested in CA-MHB supplemented with 2.5-5% lysed horse blood, and H. influenza were tested in Haemophilus test medium. Quality control and interpretation of results were performed in accordance with CLSI M100-S26 (2016) methods. QC ranges for iclaprim were those approved by CLSI and published in M100-S26 (2016). Iclaprim and comparator antibiotic MIC results were within the CLSI published ranges against E. coli ATCC 25922, E. faecalis ATCC 29212, E. faecalis ATCC 33186, H. influenzae ATCC 49247, K. pneumoniae ATCC 700603 (ESBL phenotype), S. aureus ATCC 29213, and S. pneumoniae ATCC 49619. Isolates were tested with MIC panels (ThermoFisher Scientific, Cleveland, Ohio, USA) of comparator antibiotics (daptomycin and levofloxacin).
(§3) Because bovine pulmonary surfactant can introduce cloudiness to the MIC testing media, antimicrobial growth inhibition was also evaluated using the colorimetric metabolic indicator resazurin (Camlab Ltd., Cambridge, UK). […] S. pneumoniae panels were omitted from resazurin analysis because the color change was obscured by the lysed horse blood present in the test medium. Growth inhibition was then evaluated as a visible color change from blue (no growth) to pink (robust growth) and recorded as a MICRZ value.
(§4) The MICs of iclaprim, levofloxacin, and daptomycin were determined against Gram-positive and Gram-negative isolates.
(§5) A new vial of bovine pulmonary surfactant (BPS; Survanta®; Abbott Laboratories, Columbus, Ohio) was utilized for each independent experiment. Each vial was mixed thoroughly and a 100 μL aliquot was spread on an agar plate, which was incubated overnight to confirm sterility. […] The concentration of surfactant was expressed in terms of percent volume of Survanta® suspension, which consisted of phospholipid (25 mg/mL) and surfactant proteins (<1 mg/mL) in 0.9% sodium chloride solution (Goerke, 1998). MICs of daptomycin were determined in CAMHB with the Ca^2+ content adjusted to 50 mg/L.

[2] = test system: common Gram-positive and Gram-negative respiratory bacteria; assay: Pulmonary surfactant interaction, overall effect on MIC and MICRZ; type: cell-based; conditions: 2.5% (v/v) BPS, all tested strains or isolates
Experimental: Antibacterial susceptibility testing was measured by JMI Labs (North Liberty, Iowa, USA). […] These clinical isolates were collected from US (n=4), Mexico (n=2), and Italy (n=1). Susceptibility testing was performed by broth microdilution in accordance with the Clinical and Laboratory and Standards Institute (CLSI) guidelines M07-A10 (2015) and the standard operating procedures at JMI laboratories. Minimum inhibitory concentrations (MICs) were based on CLSI criteria (2015). There are no published breakpoints for iclaprim. E. coli, K. pneumoniae, M. catarrhalis, E. faecalis, and S. aureus were tested in cation-adjusted Mueller-Hinton broth (CA-MHB). […]
Because bovine pulmonary surfactant can introduce cloudiness to the MIC testing media, antimicrobial growth inhibition was also evaluated using the colorimetric metabolic indicator resazurin (Camlab Ltd., Cambridge, UK). […] Growth inhibition was then evaluated as a visible color change from blue (no growth) to pink (robust growth) and recorded as a MICRZ value.
as §4
A new vial of bovine pulmonary surfactant (BPS; Survanta®; Abbott Laboratories, Columbus, Ohio) was utilized for each independent experiment. […] MICs of daptomycin were determined in CAMHB with the Ca^2+ content adjusted to 50 mg/L. […]

S. pneumoniae = assay: MIC with/without bovine pulmonary surfactant, S. pneumoniae; type: cell-based; conditions: Streptococcus pneumoniae
Experimental: as §1, §2, §3, §4, §5

[3] = test system: methicillin-resistant Staphylococcus aureus (MRSA) isolates; assay: Broth microdilution MIC against MRSA nonsusceptible to daptomycin, linezolid or vancomycin; type: cell-based
Experimental: Antibacterial susceptibility testing was conducted on a range of MRSA strains and isolates with varying susceptibilities to several recognized antistaphylococcal antibiotics. Susceptibility testing was performed by broth microdilution in accordance with the Clinical and Laboratory and Standards Institute (CLSI) guidelines. Minimum inhibitory concentrations (MICs) were based on CLSI criteria.

S. aureus strain AH1252 = assay: Neutropenic rat lung infection model; type: in vivo; conditions: iclaprim 80 mg/kg
Experimental: S. aureus strain AH1252, a thymidine knockout of the MRSA wild type AW6 strain, was utilized for this study. The bacterial strain was diluted in a 2% alginate buffer, which was added dropwise in a ratio of 1:5 into […] to form alginate beads. The alginate beads reduce the efficacy of bacterial clearance similar to that seen in the cystic fibrosis population. A 5.25×10^4 bacterial inoculum was administered to groups of 9 rats, intratracheally, with prepared alginate bacteria suspensions, under isoflurane anesthesia. […] Twelve hours after the last treatment, rats were euthanized and lungs collected for CFU determination.

E. coli = assay: MIC with/without bovine pulmonary surfactant, E. coli; type: cell-based, Escherichia coli; conditions: E. coli ATCC 25922
Experimental: as §1, §2, §3, §4
A new vial of bovine pulmonary surfactant (BPS; Survanta®; Abbott Laboratories, Columbus, Ohio) was utilized for each independent experiment. […] MICs of daptomycin were determined in CAMHB with the Ca^2+ content adjusted to 50 mg/L.

S. aureus [4] = conditions: worldwide surveillance studies; cited from earlier work
M. catarrhalis = assay: MIC with/without bovine pulmonary surfactant, M. catarrhalis; type: cell-based, Moraxella catarrhalis; conditions: for MICRZ, Resazurin: +BPS: 2.5% v/v BPS
Experimental: as §1, §2, §3, §4, §5

[5] = Single-dose ECG study in healthy human volunteers (1.6 and 3.2 mg/kg over 30 minutes); type: in vivo; conditions: 3.2 mg/kg infused over 30 minutes
Experimental: Based on this, a single-dose ECG-study was conducted in healthy human volunteers, where 1.6 mg/kg and 3.2 mg/kg iclaprim was infused over 30 minutes. […] Maximal increases coincided with Cmax levels and were rapidly reversible. Weight-based dosing with 1.6 mg/kg was thus assessed as acceptable for clinical purposes, whereas weight-based dosing at 3.2 mg/kg was associated with relevant QTc prolongations (>60 msec) and nonspecific T-wave alterations, and was not used for further clinical studies.

[6] = S. aureus Clinical Isolate 825189
[7] = SC/BID 3 days, vancomycin 50 mg/kg

COc1cc(Cc2cnc(N)nc2N)c2c(c1OC)OC(C1CC1)C=C2 (racemic) [Iclaprim]
MICRZ, Resazurin: +BPS (S. aureus [1]; S. aureus ATCC 29213): 0.06 µg/mL
MICRZ, Resazurin (S. aureus [1]; S. aureus ATCC 29213): 0.06 µg/mL
MICRZ, Resazurin: +BPS (S. aureus [1]; [6]): 0.12 µg/mL
MICRZ, Resazurin (S. aureus [1]; [6]): 0.06 µg/mL
effect of BPS on the MIC and MICRZ values [2]: minimal or no effect
MIC (S. pneumoniae; ATCC49619, S. pneumoniae ATCC 49619, 2.5% v/v BPS, read-out: MIC, CLSI: +BPS): 0.06 µg/mL (≈ 0.169 µM)
MIC (S. pneumoniae; ATCC49619, S. pneumoniae ATCC 49619, no BPS, read-out: MIC, CLSI): 0.06 µg/mL (≈ 0.169 µM)
MIC (S. pneumoniae; S. pneumoniae Clinical Isolate 818757, 2.5% v/v BPS, read-out: MIC, CLSI: +BPS): 0.06 µg/mL (≈ 0.169 µM)
MIC (S. pneumoniae; S. pneumoniae Clinical Isolate 818757, no BPS, read-out: MIC, CLSI): 0.06 µg/mL (≈ 0.169 µM)
MIC (S. pneumoniae; S. pneumoniae Clinical Isolate 825175, 2.5% v/v BPS, read-out: MIC, CLSI: +BPS): 0.12 µg/mL (≈ 0.339 µM)
MIC (S. pneumoniae; S. pneumoniae Clinical Isolate 825175, no BPS, read-out: MIC, CLSI): 0.12 µg/mL (≈ 0.339 µM)
MIC ([3]; Staphylococcus aureus, MRSA, read-out: MIC to the majority of MRSA isolates): ≤ 1 µg/mL
MIC50 ([3]; Staphylococcus aureus, 59 MRSA isolates): 0.25 µg/mL (≈ 0.705 µM)
MRSA isolates with iclaprim MIC ≤1 μg/ml ([3]; isolates nonsusceptible to linezolid (25 of 25)): 100%
isolates with reduced susceptibility, MICs >8 μg/mL ([3]; nine of 59 MRSA isolates): 15.2%
72 hour lungs (CFU/gram of lung) log10CFU/Lung (S. aureus strain AH1252; [7]): 3.34 log10CFU/Lung
Change in CFUs from 2 hr. (S. aureus strain AH1252; [7]): 0.22 log 10 CFU
Survival >60 hrs (S. aureus strain AH1252; SC/BID 3 days, vancomycin 50 mg/kg, 9 rats): 9/9
survival compared to the infection controls (S. aureus strain AH1252; vancomycin 50 mg/kg SC/BID): increased survival
Change in CFUs from 72 hr. (S. aureus strain AH1252; vs 72 hr infection controls, vancomycin 50 mg/kg SC/BID): −5.34 log 10 CFU
MICRZ, Resazurin: +BPS (E. coli; 2.5% v/v BPS): 1 µg/mL
MICRZ, Resazurin (E. coli; no BPS): 1 µg/mL
MIC90 of S. aureus (S. aureus [4]): 0.12 µg/mL
MICRZ, Resazurin: +BPS (M. catarrhalis; M. catarrhalis Clinical Isolate 893806): 8 µg/mL
MICRZ, Resazurin (M. catarrhalis; M. catarrhalis Clinical Isolate 893806, no BPS): 4 µg/mL
MICRZ, Resazurin: +BPS (M. catarrhalis; M. catarrhalis Clinical Isolate 893807): 4 µg/mL
MICRZ, Resazurin (M. catarrhalis; M. catarrhalis Clinical Isolate 893807, no BPS): 4 µg/mL
MIC (M. catarrhalis; Moraxella catarrhalis, M. catarrhalis Clinical Isolate 893806, no BPS): 4 µg/mL (≈ 11.3 µM)
QTc prolongations [5]: > 60 ms

From patent US10080751B2, “Systems and methods for treating bacterial infection” (priority 2016, dated 2018)
